Laboratory results from article PMC12698583, “Efficacy of sulfonamides targeting malic enzyme in an animal model of Chagas disease” (Frontiers in Pharmacology, 2025).
“Also recorded” adds a separate entry of the source. Like-named read-outs stand apart in the source and are kept apart here.

Assays:
[1] = tested on: T. cruzi Dm28c strain intracellular form infecting H9c2 rat cardiomyoblasts; assay: T. cruzi intracellular image-based assay; type: cell-based, Trypanosoma cruzi
Procedure: (§1) Tested compounds were dissolved and serially diluted in dimethylsulfoxide (DMSO) using a half-log dilution across six concentrations. Intermediate plates were prepared by diluting compounds 1:25 in DMEM (Dulbecco’s Modified Eagle Medium) with 10% FBS (Fetal Bovine Serum). The assay was based on [Fredo Naciuk et al. (2020)], with minor modifications. Briefly, T. cruzi trypomastigotes (from LLC-MK2 cultures, 6 days post-infection) were used to infect H9c2 rat cardiomyoblasts overnight (16–18 h) at MOI 1. After washing with PBS, cells were trypsinized and resuspended in DMEM at 2.3 × 10^4 cells/mL. Then, 65 μL per well was plated in 384-well plates and incubated for 24 h (37 °C, 5% CO2, >95% humidity). Subsequently, 7.5 μL of compound solution was added (final [DMSO] 0.4%). After 72 h of treatment, cells were fixed with 4% PFA and stained with Hoechst 33342 (4 μg/mL). Six images per well were acquired using the Operetta system (PerkinElmer) and analyzed with Columbus software to quantify infected cells (≥3 cytoplasmic parasite spots).

[2] = biological target: T1, T. cruzi malic enzyme (TcME) (Trypanosoma cruzi, UniProt Q4DJ68); assay: Malic enzyme (TcME) inhibition assay, diaphorase/resazurin coupled; type: biochemical
T1 sequence (Q4DJ68 entry or part of it): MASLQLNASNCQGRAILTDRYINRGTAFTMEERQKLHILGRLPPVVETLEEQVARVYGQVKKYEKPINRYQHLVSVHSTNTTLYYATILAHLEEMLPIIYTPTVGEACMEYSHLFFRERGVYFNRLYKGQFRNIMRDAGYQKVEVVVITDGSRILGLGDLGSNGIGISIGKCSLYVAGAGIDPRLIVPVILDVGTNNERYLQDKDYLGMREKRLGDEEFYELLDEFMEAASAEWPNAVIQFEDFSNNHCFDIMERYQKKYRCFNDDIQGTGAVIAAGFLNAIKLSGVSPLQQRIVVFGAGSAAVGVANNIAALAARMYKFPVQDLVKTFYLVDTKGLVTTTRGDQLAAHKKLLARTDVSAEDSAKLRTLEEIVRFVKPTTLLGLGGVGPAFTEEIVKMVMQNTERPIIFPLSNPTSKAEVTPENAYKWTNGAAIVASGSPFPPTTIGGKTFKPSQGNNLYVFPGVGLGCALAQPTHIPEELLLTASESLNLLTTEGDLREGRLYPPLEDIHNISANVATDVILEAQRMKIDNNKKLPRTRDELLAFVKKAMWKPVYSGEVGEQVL
Procedure: The TcME inhibition assay was performed as previously described, with minor modifications ([Mercaldi et al., 2021]). Briefly, a coupled assay with the enzyme diaphorase and resorufin fluorescence (Ex 545 nm/Em 600 nm) was recorded every 30 s for 6 min in a CLARIOstar plate reader (BMG LabTech). The final concentrations of reagents in the assay were: 0.02 mM NADP+, 0.4 mM L-aspartate, 0.45 nM TcMEc, 1 U/mL diaphorase, and 10 μM resazurin, all in 50 mM Tris-HCl buffer containing 50 mM NaCl and 2 mM MnCl2 at pH 7.5. The reaction was initiated by adding 1.32 mM L-malate.

[3] = tested on: T. cruzi Dm28c strain intracellular form infecting H9c2 rat cardiomyoblasts; details: cited from earlier work
[4] = biological target: T1, T. cruzi malic enzyme (TcME); parameters: method as in Mercaldi et al. (2021); details: TcME (cytosolic isoform); ref Mercaldi et al. (2021); cited from earlier work
H9c2 rat cardiomyoblasts = tested on: H9c2 rat cardiomyoblasts; parameters: method as in Mercaldi et al. (2021) and Peña et al. (2015); details: total host cells; ref Mercaldi et al. (2021) and Peña et al. (2015); cited from earlier work
[5] = Host cell cytotoxicity in the image-based assay (total host cells); details: rat, H9c2 rat cardiomyoblasts (infected with T. cruzi), 72 h treatment
Procedure: as §1

[6] = Chemical stability at physiological pHs; type: physicochemical; details: basic pH, 37 °C, 24 h
Procedure: These conditions simulate stomach acidity, plasma neutrality, and intestinal basicity.
For the chemical stability experiment, the compounds were evaluated under the same conditions with an additional incubation at 37 °C for a period of 24 h. The analysis was performed using an analytical method developed and validated by high-performance liquid chromatography with UV detection (HPLC-UV). Compounds were quantified in different pH media by comparing the areas where the substances were completely soluble with those in the reaction media. The experiments were performed in a triplicate.
These conditions simulate stomach acidity, plasma neutrality, and intestinal basicity. […] For the chemical stability experiment, the compounds were evaluated under the same conditions with an additional incubation at 37°C for a period of 24 hours. The analysis was performed using an analytical method developed and validated by high-performance liquid chromatography with UV detection (HPLC-UV). Compounds were quantified in the different pH media by comparing the areas where the substances were completely soluble with those in the reaction media. The experiments were performed in triplicate.

SMILES | activity against TcME (in words) [2] | activity against T. cruzi intracellular forms (in words) [1] | also measured
CC(C)Oc1ccc(NS(=O)(=O)c2cccc(N)c2)cc1 [compound 10, 3-amino-N-(4-isopropoxyphenyl)benzenesulfonamide] | not active | not active | –
COc1ccc(NS(=O)(=O)c2ccc(NC(=O)c3cnccn3)cc2)cc1 [AC-R009, N-(4-(N-(4-methoxyphenyl)sulfamoyl)phenyl)pyrazine-2-carboxamide] | not active | Inactive; also recorded: didn´t affect the parasite | –
COc1ccc(NS(=O)(=O)c2cccc(NC(=O)c3cc(F)cc(F)c3)c2)cc1 [TCMDC-143108] | – | – | SI ([3]; Selectivity index, ref Mercaldi et al. (2021) and Peña et al. (2015)): > 84; EC50 ([3]; host cells infected by T. cruzi amastigotes, ref Peña et al. (2015)): 500 nM; IC50 [4]: 80 nM; CC50 (H9c2 rat cardiomyoblasts): > 42 µM
CC(C)Oc1ccc(NS(=O)(=O)c2cccc([N+](=O)[O-])c2)cc1 [compound 6, N-(4-isopropoxyphenyl)-3-nitrobenzenesulfonamide] | not active | not active | –
CC(C)Oc1ccc(NS(=O)(=O)c2cccc(NC(=O)c3cc(F)cc(F)c3)c2)cc1 [AC-M109, 3,5-difluoro-N-(3-(N-(4-isopropoxyphenyl)sulfamoyl)phenyl)benzamide] | – | – | SI ([1]; Selectivity index): 318; CC50 at 72 h [5]: 12 µM; IC50 ([2]; concentration necessary to inhibit 50% of T. cruzi Malic enzyme enzymatic activity): 860 nM; Chemical stability [6]: ≤ 40%
COc1ccc(NS(=O)(=O)c2cccc([N+](=O)[O-])c2)cc1 [compound 5, N-(4-methoxyphenyl)-3-nitrobenzenesulfonamide] | not active | not active | –

Further lines, with some results ahead:

activity against TcME (in words) [2] | SMILES | activity against T. cruzi intracellular forms (in words) [1] | also measured
not active | COc1ccc(NS(=O)(=O)c2cccc(N)c2)cc1 [compound 9, 3-amino-N-(4-methoxyphenyl)benzenesulfonamide] | not active | –
not active | CC(C)Oc1ccc(NS(=O)(=O)c2ccc(NC(=O)c3cnccn3)cc2)cc1 [AC-R010, N-(4-(N-(4-isopropoxyphenyl)sulfamoyl)phenyl)pyrazine-2-carboxamide] | Inactive; also recorded: didn´t affect the parasite | –
not active | COc1ccc(NS(=O)(=O)c2ccc(NC(=O)c3cc(F)cc(F)c3)cc2)cc1 [AC-R001, 3,5-difluoro-N-(4-(N-(4-methoxyphenyl)sulfamoyl)phenyl)benzamide] | Inactive; also recorded: didn´t affect the parasite | –
